Laboratory results: ChEMBL document CHEMBL1201862, “PubChem BioAssay data set” (2004)
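Method: 48-hour compound exposure of cells in 96-well plates, five concentrations, linear interpolation of endpoints. At the GI50, growth is halved.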 The source made the active and inactive calls. No stated cut-off is given here; in the data, active = GI50 up to about 1.1 µM and inactive = higher.

Assays:
Assay in all cases: NCI anticancer screen, dose series, 48 h
A549 = tested on: A549
CAKI-1 = tested on: CAKI-1
DU-145 = tested on: DU-145
HCC 2998 = tested on: HCC 2998
HCT-15 = tested on: HCT-15
HL-60 = tested on: HL-60
KM12 = tested on: KM12
MDA-MB-231 = tested on: MDA-MB-231
Malme-3M = tested on: Malme-3M
OVCAR-4 = tested on: OVCAR-4
OVCAR-5 = tested on: OVCAR-5
RXF 393 = tested on: RXF 393
SF-268 = tested on: SF-268
SF-539 = tested on: SF-539
SK-MEL-28 = tested on: SK-MEL-28
SK-MEL-2 = tested on: SK-MEL-2
SK-OV-3 = tested on: SK-OV-3
SN12C = tested on: SN12C
U-251 = tested on: U-251

SMILES	GI50 (A549)	GI50 (CAKI-1)	GI50 (DU-145)	GI50 (HCC 2998)	GI50 (HCT-15)	GI50 (HL-60)	GI50 (KM12)	GI50 (MDA-MB-231)	GI50 (Malme-3M)	GI50 (OVCAR-4)	GI50 (OVCAR-5)	GI50 (RXF 393)	GI50 (SF-268)	GI50 (SF-539)	GI50 (SK-MEL-28)	GI50 (SK-MEL-2)	GI50 (SK-OV-3)	GI50 (SN12C)	GI50 (U-251)
Cc1cc(S(=O)(=O)Nc2nc(N)nc(N3N=CCC3C)n2)c(SCC(=O)O)cc1Cl (configuration not stated)	> 10 µM (inactive)	> 10 µM (inactive)	> 10 µM (inactive)	> 10 µM (inactive)	> 10 µM	> 10 µM (inactive)	> 10 µM (inactive)	> 10 µM (inactive)	> 10 µM (inactive)	> 10 µM (inactive)	> 10 µM (inactive)	> 10 µM (inactive)	> 10 µM (inactive)	> 10 µM (inactive)	> 10 µM (inactive)	> 10 µM (inactive)	> 10 µM (inactive)	> 10 µM (inactive)	> 10 µM (inactive)
Clc1ccc2c(NC3CCC(N4CCCCC4)CC3)ccnc2c1 (configuration not stated)	31.8 µM (inactive)	22.2 µM (inactive)	27.4 µM (inactive)	12.2 µM (inactive)	27.4 µM	14.5 µM (inactive)	20.1 µM (inactive)	16.9 µM (inactive)	20.2 µM (inactive)	26.5 µM (inactive)	30.7 µM (inactive)	18.2 µM (inactive)	35.8 µM (inactive)	15.4 µM (inactive)	18.6 µM (inactive)	18.2 µM (inactive)	57.9 µM (inactive)	34.5 µM (inactive)	21 µM (inactive)
C=C1C(=O)O[C@H]2[C@H]3O[C@@H](C[C@@H]12)[C@@]1(C)CC[C@H](O1)C(C)=CCC[C@H]3C	2.25 µM (inactive)	1.28 µM (inactive)	1.49 µM (inactive)	1.75 µM (inactive)	1.49 µM	0.278 µM (active)	1.8 µM (inactive)	1.62 µM (inactive)	1.75 µM (inactive)	1.59 µM (inactive)	3.09 µM (inactive)	1.48 µM (inactive)	1.45 µM (inactive)	1.55 µM (inactive)	1.82 µM (inactive)	1.93 µM (inactive)	4.58 µM (inactive)	1.65 µM (inactive)	1.61 µM (inactive)
C1CCNCC1.CN(C)c1ccc(/C=C2/NC(=S)NC2=O)cc1	46.8 µM (inactive)	62.5 µM (inactive)	62.1 µM (inactive)	7.26 µM (inactive)	45.3 µM	19.7 µM (inactive)		> 100 µM (inactive)	> 100 µM (inactive)	> 100 µM (inactive)	> 100 µM (inactive)	37.6 µM (inactive)	82 µM (inactive)	35.2 µM (inactive)	87.3 µM (inactive)	> 100 µM (inactive)	69.3 µM (inactive)	> 100 µM (inactive)	73.3 µM (inactive)
COC(=O)/C(C#N)=C/c1cc(C(C)(C)C)c(O)c(C(C)(C)C)c1	2.64 µM (inactive)	2.89 µM (inactive)	4.58 µM (inactive)	2.7 µM (inactive)	2.67 µM	1.88 µM (inactive)	2.62 µM (inactive)	1.63 µM (inactive)	5.55 µM (inactive)	1.85 µM (inactive)	2.54 µM (inactive)	3.41 µM (inactive)	3.27 µM (inactive)	3.27 µM (inactive)	2.62 µM (inactive)	1.73 µM (inactive)	2.48 µM (inactive)	1.48 µM (inactive)	2.26 µM (inactive)
O=S1(=O)c2ccccc2N2CCCc3cc(Cl)cc1c32	> 100 µM (inactive)	61.2 µM (inactive)	> 100 µM (inactive)	> 100 µM (inactive)	> 100 µM	> 100 µM (inactive)	> 100 µM (inactive)	37 µM (inactive)	70.6 µM (inactive)	46.2 µM (inactive)	> 100 µM (inactive)	25.2 µM (inactive)	34.4 µM (inactive)	35 µM (inactive)	> 100 µM (inactive)	44.2 µM (inactive)	51.9 µM (inactive)	> 100 µM (inactive)	
